Data from article PMC6934184, “Selective DNA-PKcs inhibition extends the therapeutic index of localized radiotherapy and chemotherapy” (The Journal of Clinical Investigation, 2019).

Columns and labels:
normal lung tissue = assay: γH2AX-positive cells in normal lung after thoracic irradiation; format: in vivo, mouse; details: 24 hours after 10 Gy; NU5455 30 mg/kg oral
Protocol: combined with 10 Gy thorax irradiation ( n = 6 - 7/group). For whole-thorax irradiation, anaesthetized mice were placed in the supine position in a customized rig. The whole thorax was exposed to X-ray radiation generated by the Gulmay Medical RS320 irradiation system (2.034 Gy/minute). The rest of the body was protected by lead shields. Three mice fr om each treatment group were humanely killed 24 h ours after irradiation, and their tumors processed to permit immunohistochemical analysis .
Tumor growth in the remaining mice was monitored by bioluminescent imaging on days 0, 4, 8 and 15 post-treatment. Mice were injected with luciferin (150 mg/kg i.p., Santa Cruz Biotechnology) and bioluminescence images were acquired using the IVIS Spectrum (PerkinElmer) at 5 minute intervals until maximum light was collected. […] Data were analyzed using LivingImage software (PerkinElmer). […]
Tissues were fixed in 4% paraformaldehyde (PFA) and paraffin -embedded. […] One tissue section from each of 3 mice per group was examined, and the whole section (excluding necrotic areas) analyzed using ImageScope analysis software (Aperio Technologies). γH2AX and 53BP1 foci were manually counted in 200 nuclei from each tumor sample. The percentage of γH2AX and 53BP1 positive nuclei in lung epithelial cells was quantified manually in normal lung samples across 5 randomly-chosen fields of view per […]

SJSA-1 = assay: clonogenic survival with etoposide; format: cell-based, human; details: NU5455 1 μM, 24 hours
Protocol: Cell line γH2AX and 53BP1 foci immunofluorescence and quantitation
Cells grown on coverslips or in 96-well plates were treated with 1 or 5 µM NU5455 or DMSO 1 hour prior to irradiation (0, 2.5 or 10 Gy) using an RS 320 X-ray Research System (Gulmay Medical). At set timepoints (15 or 30 minutes, or 1, 4, 5, 6, or 24 hours post-irradiation), cells were washed and fixed in methanol or 3% paraformaldehyde (PFA). […] In A549 and Calu-6, cells were Hoechst stained (5 µg/ml), and the average numbers of γH2AX and 53BP1 foci per cell were quantified from 400 nuclei per sample using an In Cell analyzer 1000 (GE Healthcare). For MCF7 cells, coverslips were mounted using Vectashield mounting medium with DAPI (Vector Labs) and imaged using a Leica TCS SPE confocal fluorescence microscope. Total fluorescence intensity was determined using ImagePro Plus 5.0 software (Media Cybernetics). […]
Cells were washed in phosphate-buffered saline (PBS), trypsinized and counted. […] Colonies were fixed using Carnoys fixture (75% v/v methanol, 25% v/v acetic acid, Fisher), stained with crystal violet (0.4% w/v in water), and counted using a ColCount automated colony counter (Oxford Optronics). Cell survival was calculated as a percentage of the untreated control. […]

CN(C(=O)CN1CCOCC1)c1ccc2sc3c(-c4cccc5c(=O)cc(N6CC7CCC(C6)O7)oc45)cccc3c2c1 [NU5455]
number of γH2AX-positive cells in normal lung (normal lung tissue): unaffected by NU5455 administration
Fold potentiation of etoposide (LD80, SER80) (SJSA-1): 4.1 fold
